In patent publication US20260109707A1, “HETEROBIFUNCTIONAL COMPOUNDS AND METHODS OF TREATING DISEASE” (Halda Therapeutics OpCo. Inc., priority 2022, published 2026):
Read-outs that look alike come from different tables or passages of the source.

Legend:
[1] = tested on: T-Rex 293 cell line SC3 cells having increased expression of androgen receptor protein due to exposure to doxycycline; assay: Cellular growth inhibition assay, T-Rex 293 SC3 cells with doxycycline (CellTiter-Glo, 72 hours); format: cell-based; details: T-Rex 293 SC3 cells with increased androgen receptor expression due to doxycycline (10 ng/mL)
In short: (§1)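 Growth inhibition is measured in an inducible AR-expressing T-Rex 293 clone, SC3, cultured with or without 10 ng/mL doxycycline in hormone-depleted medium. Test compounds are applied for 72 hours. GI50 values derive from CellTiter-Glo 2.0 signal fitted by four-parameter regression.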

[2] = tested on: T-Rex 293 cell line SC3 cells lacking increased expression of androgen receptor protein; assay: Cellular growth inhibition assay, T-Rex 293 SC3 cells without doxycycline (CellTiter-Glo, 72 hours); format: cell-based; details: T-Rex 293 cell line SC3 cells not exposed to doxycycline (lacking increased androgen receptor expression)
In short: as §1

VCaP cells = assay: Cellular growth inhibition assay for VCaP cells (CellTiter-Glo, 72 hours); format: cell-based, human
In short: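 Luminescent viability signal after 72 h of compound exposure gave GI50 values by four-parameter nonlinear regression. Compounds were added in 0.5% DMSO to cells plated 24 h earlier at 5000/well in DMEM containing 10% FBS.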

| Compound | GI50 (VCaP cells; Homo sapiens, VCaP, 72 h) [nM] | GI50 (VCaP cells) [nM] | GI50 ([1]; 72 h) [nM] | GI50 [2] [nM] | GI50 ([2]; 72 h) [nM] | GI50 [1] [nM] |
| --- | --- | --- | --- | --- | --- | --- |
| Cc1sc2c(c1C)C(c1ccc(C3CCC4(CCN(c5ccc(C(=O)N[C@H]6CC[C@H](Oc7ccc(C#N)c(Cl)c7)CC6)nn5)CC4)C3)nc1)=NC1(CC1)c1nnc(C)n1-2 (stereo partly drawn) [I-609] | < 500 |  | < 500 | 500 to 1500 |  |  |
| CC[C@@H]1N=C(c2ccc(N3CC4(CC(Cc5ccc(C(=O)N[C@H]6CC[C@H](Oc7ccc(C#N)c(Cl)c7)CC6)nn5)C4)C3)cc2)c2c(sc(C)c2C)-n2c(C)nnc21 [I-610] | 500 to 1500 |  | < 500 |  | > 3000 |  |
| CC[C@@H]1N=C(c2ccc(N3CCC(CCc4ccc(C(=O)N[C@H]5CC[C@H](Oc6ccc(C#N)c(Cl)c6)CC5)nn4)CC3)cc2)c2c(sc(C)c2C)-n2c(C)nnc21 [I-613] | < 500 |  | < 500 |  | 1500 to 3000 |  |
| CC[C@@H]1N=C(c2ccc(N3CCC(Cc4ccc(C(=O)N[C@H]5CC[C@H](Oc6ccc(C#N)c(Cl)c6)CC5)nn4)CC3)cc2)c2c(sc(C)c2C)-n2c(C)nnc21 [I-614] | < 500 |  | < 500 |  | 500 to 1500 |  |
| COCC[C@@H]1N=C(c2ccc(C3CCC4(CCN(c5ccc(C(=O)N[C@H]6CC[C@H](Oc7ccc(C#N)c(Cl)c7)CC6)nn5)CC4)C3)cc2)c2c(sc(C)c2C)-n2c(C)nnc21 (stereo partly drawn) [I-616] |  | > 3000 | < 500 |  | < 500 |  |
| COCC[C@@H]1N=C(c2ccc(C3CCC4(CCN(c5ccc(C(=O)N[C@H]6CC[C@H](Oc7ccc(C#N)c(Cl)c7)CC6)nn5)CC4)C3)cc2)c2c(sc(C)c2C)-n2c(C)nnc21 (stereo partly drawn) [I-617] |  | < 500 |  | 500 to 1500 |  | < 500 |
| Cc1sc2c(c1C)C(c1ccc(N3CCC4CN(c5ccc(C(=O)N[C@H]6CC[C@H](Oc7ccc(C#N)c(Cl)c7)CC6)nn5)CCC4C3)cc1)=N[C@@H](C)c1nnc(C)n1-2 (stereo partly drawn) [I-621] |  | 500 to 1500 |  | > 3000 |  | < 500 |
| Cc1sc2c(c1C)C(c1ccc(COC3CCC4(CCCN(c5ccc(C(=O)N[C@H]6CC[C@H](Oc7ccc(C#N)c(Cl)c7)CC6)nn5)C4)C3)cc1)=N[C@@H](C)c1nnc(C)n1-2 (stereo partly drawn) [I-624] |  | 500 to 1500 |  | 500 to 1500 |  | < 500 |
| Cc1sc2c(c1C)C(c1ccc(COC3CCC4(CCCN(c5ccc(C(=O)N[C@H]6CC[C@H](Oc7ccc(C#N)c(Cl)c7)CC6)nn5)C4)C3)cc1)=N[C@@H](C)c1nnc(C)n1-2 (stereo partly drawn) [I-625] |  | < 500 |  | < 500 |  | < 500 |

Now from value to molecule, other results behind:

| GI50 (VCaP cells; Homo sapiens, VCaP, 72 h) [nM] | GI50 (VCaP cells) [nM] | Compound | GI50 ([1]; 72 h) [nM] | GI50 [2] [nM] | GI50 ([2]; 72 h) [nM] | GI50 [1] [nM] |
| --- | --- | --- | --- | --- | --- | --- |
| < 500 |  | CC[C@@H]1N=C(c2ccc(N3CC4(CC(CCc5ccc(C(=O)N[C@H]6CC[C@H](Oc7ccc(C#N)c(Cl)c7)CC6)nn5)C4)C3)cc2)c2c(sc(C)c2C)-n2c(C)nnc21 [I-611] | < 500 |  | > 3000 |  |
| < 500 |  | CC[C@@H]1N=C(c2ccc(N3CCC4(CC3)CC(Cc3ccc(C(=O)N[C@H]5CC[C@H](Oc6ccc(C#N)c(Cl)c6)CC5)nn3)C4)cc2)c2c(sc(C)c2C)-n2c(C)nnc21 [I-612] | < 500 |  | > 3000 |  |
| < 500 |  | COC[C@@H]1N=C(c2ccc(N3CCC4(CCN(c5ccc(C(=O)N[C@H]6CC[C@H](Oc7ccc(C#N)c(Cl)c7)CC6)nn5)CC4)C3)cc2)c2c(sc(C)c2C)-n2c(C)nnc21 [I-615] | < 500 |  | < 500 |  |
|  | < 500 | Cc1sc2c(c1C)C(c1ccc(N3CCC4CN(c5ccc(C(=O)N[C@H]6CC[C@H](Oc7ccc(C#N)c(Cl)c7)CC6)nn5)CCC4C3)cc1)=N[C@@H](C)c1nnc(C)n1-2 (stereo partly drawn) [I-620] |  | < 500 |  | < 500 |
|  | > 3000 | Cc1sc2c(c1C)C(c1ccc(CC3CCC4(CCCN(c5ccc(C(=O)N[C@H]6CC[C@H](Oc7ccc(C#N)c(Cl)c7)CC6)nn5)C4)C3)cn1)=N[C@@H](C)c1nnc(C)n1-2 (stereo partly drawn) [I-622] | < 500 |  | < 500 |  |
|  | 500 to 1500 | Cc1sc2c(c1C)C(c1ccc(CC3CCC4(CCCN(c5ccc(C(=O)N[C@H]6CC[C@H](Oc7ccc(C#N)c(Cl)c7)CC6)nn5)C4)C3)cn1)=N[C@@H](C)c1nnc(C)n1-2 (stereo partly drawn) [I-623] |  | 500 to 1500 |  | < 500 |
